According to article PMC5007552, “The hVps34‐SGK3 pathway alleviates sustained PI3K/Akt inhibition by stimulating mTORC1 and tumour growth” (The EMBO Journal, 2016):
Where “and” joins values, the source holds several entries; their conditions need not be identical. Equal entries are not always repeated.

System: ZR-75-1 cells
Assay: NanoString human kinome mRNA quantification
Type: cell-based
Source text: Human mRNAs were hybridised to NanoString human kinome and control code sets, then subjected to quantification using NanoString software. […] To permit data compaction, and simple kinome‐wide comparisons, the fold changes are log2 transformed. […] Cell pellets were resuspended at a concentration of ~6,500 cells/μl in RLT buffer (Qiagen). […] For total copy numbers, triplicate normalised count values were averaged, and to calculate fold induction, means were divided by triplicate mean values from matched DMSO controls. P‐values were calculated using unpaired t‐test (GraphPad Prism software) by employing treated and control count data for each kinase mRNA.

SMILES: NC1(c2ccc(-c3nc4ccn5c(=O)[nH]nc5c4cc3-c3ccccc3)cc2)CCC1 [MK-2206]
- RYK normalised counts (RYK mRNA, single replicates): 1148.59 and 1139.68 and 1120.05
- SBK1 normalised counts, average (SBK1 mRNA, average of 3 replicates): 361.503
- SBK1 normalised counts (SBK1 mRNA, single replicates): 371.43 and 336.09 and 376.99
- SBK2 normalised counts, average (SBK2 mRNA, average of 3 replicates): 1.323
- SBK2 normalised counts (SBK2 mRNA, single replicates): 1.48 and 1 and 1.49
- SCYL1 normalised counts, average (SCYL1 mRNA, average of 3 replicates): 556.557
- SCYL1 normalised counts (SCYL1 mRNA, single replicates): 560.49 and 556.75 and 552.43
- SCYL2 normalised counts, average (SCYL2 mRNA, average of 3 replicates): 1373.8
- SCYL2 normalised counts (SCYL2 mRNA, single replicates): 1302.21 and 1441.13 and 1378.05
- SCYL3 normalised counts, average (SCYL3 mRNA, average of 3 replicates): 629.833
- SCYL3 normalised counts (SCYL3 mRNA, single replicates): 586.85 and 664.48 and 638.17
- SGK1 normalised counts, average (SGK1 mRNA, average of 3 replicates): 34.7533
- SGK1 normalised counts (SGK1 mRNA, single replicates): 45.11 and 34.64 and 24.51
- SGK2 normalised counts, average (SGK2 mRNA, average of 3 replicates): 5.517
- SGK2 normalised counts (SGK2 mRNA, single replicates): 6.93 and 3.37 and 6.25
- SGK3 normalised counts, average (SGK3 mRNA, average of 3 replicates): 345.983
- SGK3 normalised counts (SGK3 mRNA, single replicates): 345.97 and 349.13 and 342.85
- SGK110 normalised counts, average (SGK110 mRNA, average of 3 replicates): 1
- SGK110 normalised counts (SGK110 mRNA, single replicates): 1
- SGK223 normalised counts, average (SGK223 mRNA, average of 3 replicates): 114.123
- SGK223 normalised counts (SGK223 mRNA, single replicates): 115.1 and 115.43 and 111.84
- SGK494 normalised counts (SGK494 mRNA, single replicates): 270.07 and 276.17
- SIK1 normalised counts, average (SIK1 mRNA, average of 3 replicates): 97.7933
- SIK1 normalised counts (SIK1 mRNA, single replicates): 92.37 and 96.32 and 104.69
- SIK2 normalised counts, average (SIK2 mRNA, average of 3 replicates): 489.35
- SIK2 normalised counts (SIK2 mRNA, single replicates): 465.05 and 503.76 and 499.24
- SIK3 normalised counts, average (SIK3 mRNA, average of 3 replicates): 191.663
- SIK3 normalised counts (SIK3 mRNA, single replicates): 213.27 and 183.2 and 178.52
- SLK normalised counts, average (SLK mRNA, average of 3 replicates): 781.283
- SLK normalised counts (SLK mRNA, single replicates): 777.73 and 819.98 and 746.14
- SNRK normalised counts (SNRK mRNA, single replicates): 215.99 and 274.58
- SPEG normalised counts, average (SPEG mRNA, average of 3 replicates): 35.4833
- SPEG normalised counts (SPEG mRNA, single replicates): 26.93 and 40.72 and 38.8
- SRC normalised counts, average (SRC mRNA, average of 3 replicates): 1093.13
- SRC normalised counts (SRC mRNA, single replicates): 1115.87 and 1045.86 and 1117.67
- SRMS normalised counts, average (SRMS mRNA, average of 3 replicates): 3.94
- SRMS normalised counts (SRMS mRNA, single replicates): 1.48 and 2.5 and 7.84
- SRPK1 normalised counts, average (SRPK1 mRNA, average of 3 replicates): 1401.66
- SRPK1 normalised counts (SRPK1 mRNA, single replicates): 1439.46 and 1380.32 and 1385.2
- SRPK3 normalised counts, average (SRPK3 mRNA, average of 3 replicates): 7.937
- SRPK3 normalised counts (SRPK3 mRNA, single replicates): 8.75 and 11.19 and 3.87
- STK3 normalised counts, average (STK3 mRNA, average of 3 replicates): 371.33
- STK3 normalised counts (STK3 mRNA, single replicates): 336.89 and 406.46 and 370.64
- STK10 normalised counts, average (STK10 mRNA, average of 3 replicates): 433.017
- STK10 normalised counts (STK10 mRNA, single replicates): 449.6 and 416.89 and 432.56
- STK11 normalised counts, average (STK11 mRNA, average of 3 replicates): 800.127
- STK11 normalised counts (STK11 mRNA, single replicates): 804.09 and 773.94 and 822.35
- STK16 normalised counts, average (STK16 mRNA, average of 3 replicates): 424.973
- STK16 normalised counts (STK16 mRNA, single replicates): 430.51 and 422.97 and 421.44
- STK17A normalised counts, average (STK17A mRNA, average of 3 replicates): 614.85
- STK17A normalised counts (STK17A mRNA, single replicates): 623.21 and 605.4 and 615.94
- STK17B normalised counts, average (STK17B mRNA, average of 3 replicates): 149.18
- STK17B normalised counts (STK17B mRNA, single replicates): 155.09 and 144.1 and 148.35
- STK19 normalised counts, average (STK19 mRNA, average of 3 replicates): 156.807
- STK19 normalised counts (STK19 mRNA, single replicates): 145.09 and 157.13 and 168.2
- STK24 normalised counts (STK24 mRNA, single replicates): 2291.16
- STK25 normalised counts, average (STK25 mRNA, average of 3 replicates): 893.797
- STK25 normalised counts (STK25 mRNA, single replicates): 868.63 and 899.91 and 912.85
- STK31 normalised counts, average (STK31 mRNA, average of 3 replicates): 2.42
- STK31 normalised counts (STK31 mRNA, single replicates): 2.39 and 1 and 3.87
- STK32A normalised counts, average (STK32A mRNA, average of 3 replicates): 1.637
- STK32A normalised counts (STK32A mRNA, single replicates): 1 and 1.63 and 2.28
- STK32B normalised counts, average (STK32B mRNA, average of 3 replicates): 1.427
- STK32B normalised counts (STK32B mRNA, single replicates): 1 (2×) and 2.28
- STK32C normalised counts, average (STK32C mRNA, average of 3 replicates): 205.643
- STK32C normalised counts (STK32C mRNA, single replicates): 188.41 and 219.8
- STK33 normalised counts, average (STK33 mRNA, average of 3 replicates): 1.163
- STK33 normalised counts (STK33 mRNA, single replicates): 1 (2×) and 1.49
- STK35 normalised counts, average (STK35 mRNA, average of 3 replicates): 342.25
- STK35 normalised counts (STK35 mRNA, single replicates): 336.89 and 343.04 and 346.82
- STK38L normalised counts, average (STK38L mRNA, average of 3 replicates): 664.543
- STK38L normalised counts (STK38L mRNA, single replicates): 674.11 and 657.53 and 661.99
- STK38 normalised counts, average (STK38 mRNA, average of 3 replicates): 732.567
- STK38 normalised counts (STK38 mRNA, single replicates): 697.74 and 733.98 and 765.98
- STK39 normalised counts, average (STK39 mRNA, average of 3 replicates): 817.837
- STK39 normalised counts (STK39 mRNA, single replicates): 763.19 and 842.57 and 847.75
- Normalised counts (single replicate) (VRK3 mRNA): 720.47 and 725.29 and 752.49
- Normalised counts (single replicate) (WEE2 mRNA): 1.48 and 1.63 and 1.49
- Normalised counts (single replicate) (WNK1 mRNA): 3425.55 and 3529.59 and 3400.03
- Normalised counts (single replicate) (WNK2 mRNA): 345.97 and 335.23 and 337.29
- Normalised counts (single replicate) (WNK3 mRNA): 30.56 and 30.3 and 37.21
- Normalised counts (single replicate) (WNK4 mRNA): 5.11 and 1 and 4.66
- Normalised counts (single replicate) (YES1 mRNA): 2809.27 and 2957.96 and 2943.56
- Normalised counts (single replicate) (YSK4 mRNA): 1 (2×) and 1.49
- Normalised counts (single replicate) (ZAK mRNA): 35.11 and 50.28 and 49.91
- Normalised counts (single replicate) (ZAP70 mRNA): 1 (2×) and 1.63
- rank of SGK3 mRNA among AGC kinases (ZR-75-1, DMSO vehicle 29th): 12
